According to ChEMBL document CHEMBL3507680, “University of Dundee, Gates Library screen for HepG2 cell viability”:

Assay: Human HepG2 cell viability assay in 384 well format
Type: toxicity, cell-based
Design: dose 125 nL, time 70.5 hour; concentration not given beside the values
Conditions: HepG2 cells, read-out: Inhibition

SMILES | cytotoxicity at 70.5 h [%]
CCN(Cc1ccc2c(c1)OCO2)C(=O)NC(C)Cn1ccnc1 (configuration not stated) | 1.66
CCc1nc(CN2CCCN(C(=O)CC(F)(F)F)CC2)cs1 | 1.28
Cn1c(C2CC2)nc2c1CCN(CCOc1ccccc1C#N)C2 | 23.9
COc1ncccc1NC(=O)C1CC1 | -1.48
CNC(=O)CN1CCC(NC(=O)Cc2ccc3c(c2)OCCO3)CC1 | 0.523
Cc1ccccc1C(=O)NCc1ccnc(N(C)C)c1 | 0.094
Cc1ccc(C(=O)NCc2ccnc(N(C)C)c2)c(C)c1 | 1.03
O=C(NCCCN1CCCCCC1=O)c1n[nH]c(=O)c2ccccc12 | -2.46
O=C(NCCN1CCCCCC1)c1n[nH]c(=O)c2ccccc12 | 1.79
O=C(Nc1cccnc1N1CCCC1)C1CCS(=O)(=O)C1 (configuration not stated) | 1.04
CC(C)c1noc(CCC(=O)NC2CCS(=O)(=O)C2)n1 (configuration not stated) | 0.473
CC(C)(C)c1noc(CCC(=O)NCC2CCS(=O)(=O)C2)n1 (configuration not stated) | 1.1
O=C(NCc1cc[nH]n1)NCC(O)c1ccccc1F (configuration not stated) | 0.0915
O=C(NCc1cc[nH]n1)NCC(O)c1ccc(F)cc1 (configuration not stated) | 6.85
CN(C)c1cc(CNC(=O)c2ccc(Br)cc2F)ccn1 | -4.97
COc1ncccc1NC(=O)C1CCOCC1 | 22.9
Cn1cnc2c1CCN(CCOc1ccc(C#N)cc1)C2 | 1.67
CC(C)c1nc2c(n1C)CCN(CCCOc1ccc(C#N)cc1)C2 | 2.99
CN(C)c1ccc(C(=O)N2CCN(CC(C)(C)O)CC2)nn1 | -2.1
CN(C)c1ncccc1CNc1cc(N2CCCC2CO)ncn1 (configuration not stated) | 10.5
CC(C)c1noc(CCC(=O)NCC2CCC(C(N)=O)CC2)n1 (configuration not stated) | 1.53
Cc1nnc(NC(=O)CN2CCc3c(nc(C4CC4)n3C)C2)s1 | 6.62
CC(Cn1ccnc1)NC(=O)N(C)Cc1ccc2c(c1)OCO2 (configuration not stated) | 1.49
CCc1nc(CN(C)C2CCN(CCC(=O)N3CCCCC3)C2)no1 (configuration not stated) | 0.593

SMILES | cytotoxicity at 70.5 h [%]
CCc1[nH]ncc1C(=O)N1CCCC(n2cncn2)C1 (configuration not stated) | 1.79
CN(CCC(=O)N1CCc2sccc2C1)Cc1ccc2c(c1)OCCO2 | -2.14
Cc1cnn(CC2CN(Cc3noc(C4CC4)n3)CCO2)c1 (configuration not stated) | -13.6
c1cnn(CC2CN(Cc3nc(C4CC4)no3)CCO2)c1 (configuration not stated) | 19.7
CCn1c(CNCC2CCCN2c2cccnn2)nc2ccccc21 (configuration not stated) | -9.03
CCc1nc(CN(C)C2CCN(CC(F)(F)F)C2)no1 (configuration not stated) | -4.19
Cc1cccnc1CNC(=O)N(CCCO)C1CCc2ccccc21 (configuration not stated) | -12.3
CC(C)Cc1nc(CN2CCOC(Cn3cccn3)C2)no1 (configuration not stated) | 15.4
CCc1nc(C2CCCN2Cc2nccn2CC(F)(F)F)no1 (configuration not stated) | 1.64
Cc1cccc(CNC(=O)N(CCCO)C2CCc3ccccc32)n1 (configuration not stated) | -1.88
Cc1nc(C)n(CC2CN(Cc3noc(C4CC4)n3)CCO2)n1 (configuration not stated) | -6.68
Cc1ncc2c(n1)CCN(CCCc1nc3ccccc3o1)C2 | -2.27
COc1ccc(F)cc1C(C)NC(=O)NCCCn1cncn1 (configuration not stated) | -2.2
CCS(=O)(=O)c1ccccc1C(=O)N1CCCC(n2cccn2)C1 (configuration not stated) | 18.2
CC(C)c1nc(CN2CCOC(Cn3cccn3)C2)no1 (configuration not stated) | 1.63
CC(C)(C)c1nc(CN2CCOC(Cn3cccn3)C2)no1 (configuration not stated) | 0.39
CC(C)c1nnc2n1CCN(C(=O)c1cccc(S(C)(=O)=O)c1)C2 | 17
CCc1nnc2n1CCN(C(=O)c1ccnc(N(C)C)c1)C2 | -2.04
Cc1ccc(NC2CCN(C(=O)c3cccc4cccnc34)CC2)nn1 | -6.15
Cc1nc(C2CCCN(C(=O)c3c(C)nn4cccnc34)C2)no1 (configuration not stated) | -4.04
CC(C)c1nc(CN2CCCN(Cc3nccn3C)CC2)no1 | 18.1
Cc1nc(CN2CCCC(N(C)Cc3nccn3C)C2)no1 (configuration not stated) | 21.6
Cc1cnc(CN(C)C2CCN(CCCc3ccccc3)C2)o1 (configuration not stated) | 10
Cc1cc(CN2CCCC(c3cc(C(F)(F)F)[nH]n3)C2)no1 (configuration not stated) | -15.8

SMILES | cytotoxicity at 70.5 h [%]
N#Cc1ccc(OCCN2CCn3c(nnc3C3CC3)C2)cc1 | 6.25
COc1ccc(C)cc1CN(C)CC(=O)NC1(C)CCS(=O)(=O)C1 (configuration not stated) | -15.5
O=C(NCCNC(=O)c1scnc1Cl)c1cccs1 | -14.2
O=C(NCCNC(=O)c1scnc1Cl)c1ccccc1Cl | -8.93
Cc1cnc(C(=O)N2CCCN(c3nc(C)cs3)CC2)cn1 | -7.69
NC(=O)CN1CCCN(C(=O)Cc2ccc3c(c2)OCCO3)CC1 | -11
CCc1nnc2n1CCN(Cc1nnc(-c3occc3C)o1)C2 | -4.81
Cc1nc(C)n(CC2CCCN2Cc2cn3cc(Cl)ccc3n2)n1 (configuration not stated) | -1.76
CCc1ccc(C(=O)N2CCC(Nc3ccc(C)nn3)CC2)o1 | -4.81
COc1ccc(S(=O)(=O)N2CCc3ccc(F)cc32)cc1C(=O)O | 1.61
Cc1nc(CN2CCCC(c3cc(C(F)(F)F)[nH]n3)C2)cs1 (configuration not stated) | -3.08
Cc1csc(N2CCCN(C(=O)c3c(C)noc3C)CC2)n1 | -8.3
Cc1csc(N2CCN(C(=O)c3c(C)oc(C)c3C)CC2)n1 | -1.28
Cc1cc(C)n(CC2CCCN2C(=O)c2ccc3nncn3c2)n1 (configuration not stated) | -4.03
CC1CN(C)CCN1Cc1cccc(C(=O)N(C)C)c1 (configuration not stated) | 33.2
Cn1cc(CC(=O)N2CCCC(n3cncn3)C2)cn1 (configuration not stated) | -3.54
CCC1CN(C(=O)NCc2cccnc2-n2cccn2)CCO1 (configuration not stated) | -5.61
O=C(c1cnn(-c2ccccc2)n1)N1CCCC(n2cccn2)C1 (configuration not stated) | -10.8
Cc1nnc(C(C)N2CCN(Cc3ccc4c(c3)OCO4)CC2)o1 (configuration not stated) | 16.9
Cc1nnc(C(C)N2CCN(Cc3ccc(C#N)cc3)CC2)o1 (configuration not stated) | -6.02
Cc1cccc(-c2ccc(C(=O)NCCN(C)C3CC3)c(=O)[nH]2)c1 | -34.3
COc1cc(CNC(=O)CNc2cc(Cl)ccc2OC)ccn1 | 3.6
N#Cc1ccc(N2CCCN(C(=O)CC3CCCO3)CC2)cc1 (configuration not stated) | -15.2
Cc1nc(N2CCN(C(=O)c3ccsc3)CC2)c2cnn(C)c2n1 | -10.3

SMILES | cytotoxicity at 70.5 h [%]
Cc1nn(C)c(Cl)c1C1CCCN1C(=O)c1ccc2c(c1)OCO2 (configuration not stated) | -16.9
COc1ccc(C(=O)NS(=O)(=O)c2ccc(C#N)cc2C(F)(F)F)cc1 | -16.9
COc1ccc(CNC(C)c2ccc3[nH]c(=O)[nH]c3c2)cc1 (configuration not stated) | -2.85
Cc1cc(C(=O)O)cc(S(=O)(=O)Nc2ccc3c(c2)OCO3)c1C | 20.2
Cc1ccc(S(=O)(=O)N2CCOc3ccccc32)cc1C(N)=O | 14
CCc1ccc(O)c(C(=O)NC2CCN(C(=O)OC)CC2)c1 | -10.9
CN1CCOC(CNC(=O)Cc2ccccc2F)C1 (configuration not stated) | -8.56
CN(Cc1ccccc1)CC(O)Cn1cnc2c(cnn2C)c1=O (configuration not stated) | -5.87
N#Cc1cccc(S(=O)(=O)NC(=O)COc2ccc3c(c2)CCC3)c1 | 4.27
Cc1cnn(C2CCCN(C(=O)c3sccc3C#N)C2)c1 (configuration not stated) | 28.7
CC(C)(C)c1nnc(CN2CCOC(Cn3cncn3)C2)o1 (configuration not stated) | -1.42
Cc1ccccc1-c1noc(CN2CCn3c(nnc3C3CC3)C2)n1 | 20.5
Cc1ccc2oc(C(=O)N3CCCC(c4noc(C)n4)C3)cc2n1 (configuration not stated) | -5.41
Cc1nnc2n1CCN(C(C(=O)NC1CC1)c1ccccc1)C2 (configuration not stated) | -10.2
NC(=O)c1ccc(S(=O)(=O)NC(=O)COc2ccc3c(c2)CCC3)cc1 | -6.16
COCc1nc(C(=O)NS(=O)(=O)c2ccc(C)s2)cs1 | -4.27
COCc1nc(C(=O)NS(=O)(=O)c2ccc(C)cc2C)cs1 | -11.1
CS(=O)(=O)c1ccc(NC(=O)NCc2ccc3c(c2)CCC3)cn1 | -2.56
Cc1ccc(OCC(=O)NS(=O)(=O)c2c(C)noc2C)cc1C | 25
CC(C)c1nn(C)c(N2CCOCC2)c1CNCCS(C)(=O)=O | 3.3
CN(Cc1ccccc1)CC(O)Cn1cnc2ccsc2c1=O (configuration not stated) | -8.61
O=C(CCCOc1ccccc1Cl)N1CCCC(n2cncn2)C1 (configuration not stated) | 11
Cc1ncsc1C(=O)N(Cc1cccnc1)C1CC1 | 3.01
c1ccc(OCc2ccncc2)c(CNC2CCc3ncnn3C2)c1 (configuration not stated) | 17.2

SMILES | cytotoxicity at 70.5 h [%]
CC(C)n1ccnc1CN1CCCN(C(=O)c2cc(Cl)c[nH]2)CC1 | -3.72
CCc1nc(C2CCCN2CCCS(=O)(=O)c2ccccc2)no1 (configuration not stated) | -7.66
CC(C)c1nc(C2CCCN2Cc2ccn(C)c(=O)c2)no1 (configuration not stated) | -0.609
CCC1c2ccsc2CCN1C(=O)NCc1ccccn1 (configuration not stated) | -6.47
Cc1noc(C2CCN(C(=O)CCNS(C)(=O)=O)CC2)n1 | -17.2
Cc1c[nH]cc1C(=O)N1CCN(CCc2cccs2)CC1 | -5.85
Cn1cc(NC(=O)N2CCC(c3ccccc3)CC2)ccc1=O | -3.71
CN1CCN(C(=O)c2cccc(OCc3cscn3)c2)CC1 | 4.86
Cn1cc(NC(=O)N2CCC(CN3CCCC3)CC2)ccc1=O | -0.384
Cc1ccc(C(=O)N2CCN(CCC(C)(C)C)CC2)c(=O)[nH]1 | -6.54
CC(C)(O)CN1CCN(C(=O)c2cccnc2O)CC1 | -2.58
NC(=O)c1cc(C2CCCN(CCOCC(F)(F)F)C2)n[nH]1 (configuration not stated) | 34.2
Cn1cc(NC(=O)N2CCC(NS(C)(=O)=O)CC2)ccc1=O | 2.55
NC(=O)c1cc(C2CCCN(CCCOc3ccccc3)C2)n[nH]1 (configuration not stated) | -10.9
NC(=O)c1cc(C2CCCN(CCc3ccccn3)C2)n[nH]1 (configuration not stated) | -10.6
CN(Cc1noc(C2CC2)n1)C1CCN(Cc2ccncc2)C1 (configuration not stated) | -9.86
CC(C)N1CC(C(=O)NCc2ccnc(-n3cccn3)c2)CC1=O (configuration not stated) | -26.8
CS(=O)(=O)NCC1CCCN(C(=O)COCC(F)(F)F)C1 (configuration not stated) | -21
CC(C)N1CCN(C(=O)Nc2cnn(CC(N)=O)c2)CC1 | 18.2
Cc1cnn(CC2CCCCN2Cc2cc(C)on2)c1 (configuration not stated) | -18.5
c1cnn(CC2CCCCN2Cc2cn3ccsc3n2)c1 (configuration not stated) | -13.5
